Experimental data published in PMC9698340, “Discovery and SAR Study of Quinoxaline–Arylfuran Derivatives as a New Class of Antitumor Agents” (Pharmaceutics, 2022).

What was measured:
Type in all cases: cell-based
PC3 cells = assay: CCK-8 antiproliferation assay, PC3; settings: Homo sapiens, PC-3; 20 μM, 48 h, CCK-8, mean ± SD; read-out: Inhibition Rate (%) at 20 μM, PC3
Procedure: (§1) Human lung carcinoma cell lines A549, human cervical cancer cell lines HeLa, human prostate cancer cell lines PC3, human colorectal carcinoma cell lines HCT116, and human liver cells L02 were purchased from the Chinese Academy of Sciences Shanghai Cell Bank (Shanghai, China). HeLa, A549, PC3, HCT116, and L02 cells were cultured in DMEM Dulbecco’s Modified Eagle Medium (DMEM; Gibco Inc., Gaithersburg, MD, USA). All cultures were provided with 10% fetal bovine serum (FBS; YHSM, Beijing, China), 100 IU/mL penicillin, and 100 μg/mL streptomycin, and cells were incubated at 37 °C in an atmosphere of 5% CO2.
(§2) Cell viability was determined using a CCK-8 kit (Apexbio, Houston, TX, USA). […] Subsequently, absorbance was assessed at 450 nm. Three duplicates were set in each group.
(§3) All synthesized quinoxalines compounds were tested for in vitro cytotoxicity against four cancer cell lines (HeLa, PC3, A549, and HCT116). The inhibitory effects of these compounds were evaluated using the CCK-8 assay after treatment with 20 μM of each compound. […] The species of phenyl substituents have a significant effect on the activity. […] By comparison, hydrophobic substitution at the phenyl ring gave derivatives with relatively low potency (QW7–8). In addition, large substituents on the phenyl ring exerted an unfavorable influence on the potency of the compounds (QW8 and QW16).

HeLa cells = assay: CCK-8 antiproliferation assay, HeLa; settings: Homo sapiens; 20 μM, 48 h, CCK-8, mean ± SD; read-out: Inhibition Rate (%) at 20 μM, HeLa
Procedure: as §1, §2, §3

HCT116 cells = assay: CCK-8 antiproliferation assay, HCT116; settings: Homo sapiens, HCT-116; 20 μM, 48 h, CCK-8, mean ± SD; read-out: Inhibition Rate (%) at 20 μM, HCT116
Procedure: as §1, §2, §3

A549 cells = assay: CCK-8 antiproliferation assay, A549; settings: Homo sapiens, 20 μM, 48 h, CCK-8, mean ± SD, read-out: Inhibition Rate (%) at 20 μM, A549
Procedure: as §1, §2, §3

Row | SMILES | inhibition at 20 µM (PC3 cells) [%] | inhibition at 20 µM (HeLa cells) [%] | inhibition at 20 µM (HCT116 cells) [%] | inhibition at 20 µM (A549 cells) [%]
1 | COc1cc(-c2ccc(/C=N/NC(=O)c3ccc(F)cc3)o2)c(OC)cc1-c1cnc2ccccc2n1 [QW1, (E)-N’-((5-(2,5-dimethoxy-4-(quinoxalin-2-yl)phenyl)furan-2-yl)methylene)-4-fluorobenzohydrazide] | 5.13 ± 0.59 | 5.14 ± 0.13 | 15.33 ± 0.14 | 7.47 ± 0.52
2 | COc1cc(-c2ccc(/C=N/NC(=O)c3ccccc3)o2)c(OC)cc1-c1cnc2ccccc2n1 [QW2, (E)-N’-((5-(2,5-dimethoxy-4-(quinoxalin-2-yl)phenyl)furan-2-yl)methylene)benzohydrazide] | 1.76 ± 0.23 | 8.64 ± 0.26 | 17.8 ± 0.67 | 6.46 ± 0.43
3 | COc1cc(-c2ccc(/C=N/NC(=O)c3cccnc3)o2)c(OC)cc1-c1cnc2ccccc2n1 [QW3, (E)-N’-((5-(2,5-dimethoxy-4-(quinoxalin-2-yl)phenyl)furan-2-yl)methylene)nicotinohydrazide] | 32.6 ± 0.65 | 38.81 ± 0.3 | 33.8 ± 0.41 | 11.63 ± 0.03
4 | COc1cc(-c2ccc(/C=N/NC(=O)c3ccc(O)cc3)o2)c(OC)cc1-c1cnc2ccccc2n1 [QW4, (E)-N’-((5-(2,5-dimethoxy-4-(quinoxalin-2-yl)phenyl)furan-2-yl)methylene)-4-hydroxybenzohydrazide] | 38.74 ± 0.2 | 44.29 ± 0.05 | 30.7 ± 0.04 | 25.5 ± 0.62
5 | COc1cc(-c2ccc(/C=N/NC(=O)c3ccncc3)o2)c(OC)cc1-c1cnc2ccccc2n1 [QW5, (E)-N’-((5-(2,5-dimethoxy-4-(quinoxalin-2-yl)phenyl)furan-2-yl)methylene)isonicotinohydrazide] | 26 ± 0.37 | 31.13 ± 0.23 | 30.6 ± 0.51 | 18.52 ± 0.18
6 | COc1cc(-c2ccc(/C=N/NC(=O)c3ccccn3)o2)c(OC)cc1-c1cnc2ccccc2n1 [QW6, (E)-N’-((5-(2,5-dimethoxy-4-(quinoxalin-2-yl)phenyl)furan-2-yl)methylene)picolinohydrazide] | 0.1 ± 0.13 | 0.53 ± 0.12 | 16.5 ± 0.25 | 1.66 ± 0.61
7 | COc1cc(-c2ccc(/C=N/NC(=O)c3cccc(C)c3)o2)c(OC)cc1-c1cnc2ccccc2n1 [QW7, (E)-N’-((5-(2,5-dimethoxy-4-(quinoxalin-2-yl)phenyl)furan-2-yl)methylene)-3-methylbenzohydrazide] | 4.73 ± 0.01 | 8.46 ± 0.42 | 2.18 ± 0.38 | 4.31 ± 0.08
8 | COc1cc(-c2ccc(/C=N/NC(=O)c3ccc(-c4ccccc4)cc3)o2)c(OC)cc1-c1cnc2ccccc2n1 [QW8, (E)-N’-((5-(2,5-dimethoxy-4-(quinoxalin-2-yl)phenyl)furan-2-yl)methylene)-[1,1’-biphenyl]-4-carbohydrazide] | 11.8 ± 0.56 | 3.46 ± 0.17 | 20.92 ± 0.05 | 5.8 ± 0.02
9 | COc1cc(-c2ccc(/C=N/NC(=O)c3ccc(F)cc3)o2)c(OC)cc1-c1ccc2nccnc2c1 [QW9, (E)-N’-((5-(2,5-dimethoxy-4-(quinoxalin-6-yl)phenyl)furan-2-yl)methylene)-4-fluorobenzohydrazide] | 3.98 ± 0.49 | 17.1 ± 0.41 | 29.9 ± 0.57 | 1.16 ± 0.63
10 | COc1cc(-c2ccc(/C=N/NC(=O)c3ccccc3)o2)c(OC)cc1-c1ccc2nccnc2c1 [QW10, (E)-N’-((5-(2,5-dimethoxy-4-(quinoxalin-6-yl)phenyl)furan-2-yl)methylene)benzohydrazide] | 8.09 ± 0.13 | 4.3 ± 0.45 | 10.9 ± 0.46 | 8.82 ± 0.08
11 | COc1cc(-c2ccc(/C=N/NC(=O)c3cccnc3)o2)c(OC)cc1-c1ccc2nccnc2c1 [QW11, (E)-N’-((5-(2,5-dimethoxy-4-(quinoxalin-6-yl)phenyl)furan-2-yl)methylene)nicotinohydrazide] | 29.35 ± 0.18 | 45.5 ± 0.61 | 39.9 ± 0.68 | 17.27 ± 0.03
12 | COc1cc(-c2ccc(/C=N/NC(=O)c3ccncc3)o2)c(OC)cc1-c1ccc2nccnc2c1 [QW13, (E)-N’-((5-(2,5-dimethoxy-4-(quinoxalin-6-yl)phenyl)furan-2-yl)methylene)isonicotinohydrazide] | 18.5 ± 0.3 | 37.71 ± 0.12 | 23.2 ± 0.27 | 3.96 ± 0.59
13 | COc1cc(-c2ccc(/C=N/NC(=O)c3ccccn3)o2)c(OC)cc1-c1ccc2nccnc2c1 [QW14, (E)-N’-((5-(2,5-dimethoxy-4-(quinoxalin-6-yl)phenyl)furan-2-yl)methylene)picolinohydrazide] | 12.9 ± 0.31 | 8.67 ± 0.24 | 30.5 ± 0.55 | 5.46 ± 0.7
14 | COc1cc(-c2ccc(/C=N/NC(=O)c3cccc(C)c3)o2)c(OC)cc1-c1ccc2nccnc2c1 [QW15, (E)-N’-((5-(2,5-dimethoxy-4-(quinoxalin-6-yl)phenyl)furan-2-yl)methylene)-3-methylbenzohydrazide] | 13.77 ± 0.12 | 14.26 ± 0.12 | 18.8 ± 0.54 | 9.44 ± 0.39
15 | COc1cc(-c2ccc(/C=N/NC(=O)c3ccc(-c4ccccc4)cc3)o2)c(OC)cc1-c1ccc2nccnc2c1 [QW16, (E)-N’-((5-(2,5-dimethoxy-4-(quinoxalin-6-yl)phenyl)furan-2-yl)methylene)-[1,1’-biphenyl]-4-carbohydrazide] | 9.37 ± 0.09 | 10.93 ± 0.04 | 41.48 ± 0.05 | 4.12 ± 0.33
16 | COc1cc(-c2cc(OC)c3ccccc3c2OC)c(OC)cc1-c1ccc(/C=N/NC(=O)c2ccc(F)cc2)o1 [QW17, (E)-N’-((5-(4-(1,4-dimethoxynaphthalen-2-yl)-2,5-dimethoxyphenyl)furan-2-yl)methylene)-4-fluorobenzohydrazide] | 11.7 ± 0.66 | 6.49 ± 0.17 | 4.69 ± 0.5 | 0.44 ± 0.16
17 | COc1cc(-c2cc(OC)c3ccccc3c2OC)c(OC)cc1-c1ccc(/C=N/NC(=O)c2ccccc2)o1 [QW18, (E)-N’-((5-(4-(1,4-dimethoxynaphthalen-2-yl)-2,5-dimethoxyphenyl)furan-2-yl)methylene)benzohydrazide] | 8.09 ± 0.13 | 4.3 ± 0.45 | 10.9 ± 0.46 | 8.82 ± 0.08
18 | COc1cc(-c2cc(OC)c3ccccc3c2OC)c(OC)cc1-c1ccc(/C=N/NC(=O)c2cccnc2)o1 [QW19, (E)-N’-((5-(4-(1,4-dimethoxynaphthalen-2-yl)-2,5-dimethoxyphenyl)furan-2-yl)methylene)nicotinohydrazide] | 8.37 ± 0.21 | 9.56 ± 0.65 | 4.61 ± 0.66 | 0.15 ± 0.35
19 | COc1cc(-c2cc(OC)c3ccccc3c2OC)c(OC)cc1-c1ccc(/C=N/NC(=O)c2ccc(O)cc2)o1 [QW20, (E)-N’-((5-(4-(1,4-dimethoxynaphthalen-2-yl)-2,5-dimethoxyphenyl)furan-2-yl)methylene)-4-hydroxybenzohydrazide] | 15.6 ± 0.19 | 22.5 ± 0.25 | 48.5 ± 0.01 | 18.73 ± 0.1
